Measurements reported in article PMC11784013, “Potassium molybdate blocks APN-dependent coronavirus entry by degrading receptor via PIK3C3-mediated autophagy” (Journal of Virology, 2024).

Key:
[1] = tested on: TGEV Miller; test: TGEV infection of ST cells (RT-qPCR, TCID50, western blot, IFA); type: cell-based, transmissible gastroenteritis virus; details: TGEV Miller 0.1 MOI, PM 1 h pretreatment and 17 h after infection, TCID50, western blot, IFA
Description: Fig 1 PM inhibits TGEV and PRCV infection in ST cells. (A) A cytotoxicity assay of PM in ST cells. ST cells cultured in a 96-well plate were incubated with different concentrations of PM for 24 h, which was tested by Cell Counting Kit 8. (B) Time course for PM inhibiting TGEV or PRCV or PEDV infection assay. (C–F) The ST cells, pretreated with PM at the indicated concentrations for 1 h were infected with TGEV Miller (0.1 MOI) or PRCV (0.1 MOI) for 1 h and were again treated with PM at 37°C for 17 h. The cell samples were collected and examined by real-time quantitative PCR (RT-qPCR), TCID50, western blot (C and D), and immunofluorescence assay (IFA) (E and F), scale bar: 50 µm. (G) Vero-E6 cells were treated with indicated PM and infected with PEDV LJX 01/2014 according to the time course of Fig. 1B, which was detected by TCID50 and western blot. Results are presented as mean ± SD of data from three independent experiments. ns, no significant; **, P ≤ 0.01; ***, P ≤ 0.001.
Fig 3 PM inhibits TGEV and PRCV infection by potassium ion and molybdate synergy. […] The cell samples were measured by RT-qPCR. (C and D) ST cells were treated with PM (K2MoO4, 10 mM), KCl (20 mM), Na2MoO4 (10 mM), sodium chloride (NaCl, 10 mM), K2MoO4 (10 mM), and NaCl (20 mM) as well as Na2MoO4 (10 mM) and KCl (20 mM) for 1 h and then infected with TGEV Miller (0.1 MOI) or PRCV (0.1 MOI) for 17 h, which was determined by RT-qPCR and TCID50. […]
Total RNA was extracted using RNAiso reagent (TaKaRa, Japan, 9109) and reverse transcribed into cDNA using HiScript Q RT SuperMix for qPCR (Vazyme, China, R223-01), both of which followed the manufacturer’s recommendations. The TGEV and PRCV virus copy numbers were detected by the TaqMan probe-based RT-qPCR method developed previously in our laboratory ([59]). Relative qPCR was also performed using ChamQ SYBR qPCR master mix (Vazyme, China, Q311-02), and the results were calculated via the 2^-ΔΔCT method.

[2] = tested on: TGEV Miller; test: TGEV challenge of neonatal piglets, PM therapy and prevention; type: in vivo
Description: Fig 10 Oral administration of PM reduces TGEV pathogenicity by autophagic degradation of APN in piglets. (A) Experimental schemes for testing therapeutic and prophylactic efficacy of PM treatment against TGEV challenge in four groups of piglets. (B) Viral shedding was measured by RT-qPCR every 12 h postinfection. (C) TGEV genome copy numbers of duodenum, jejunum, and ileum were detected by RT-qPCR, and APN, PIK3C3, P62, and TGEV N in the small intestine were determined by western blot from piglets sacrificed at 24 hpi. (D) IFA of TGEV N and APN in different segments of the small intestine from piglets sacrificed at 24 hpi. Scale bar: 50 µm. Results are presented as mean ± SD of data from three independent experiments. **, P ≤ 0.01; ***, P ≤ 0.001.
Small intestinal tissues were collected, fixed for 24 h in 10% formalin, dehydrated according to the standard protocol, embedded in paraffin, and subjected to hematoxylin and eosin staining by standard procedures. For immunofluorescence analysis, Organoid monolayers or ST cells were fixed with 4% paraformaldehyde for 20 min and then permeabilized with 0.1% Triton X-100 (Beyotime, China, ST797) for 20 min at 37°C. Organoid monolayers or ST cells were blocked with 5% BSA (Biofroxx, Germany, 4240GR100) for 1 h and then labeled with primary antibodies overnight at 4°C. After rinsing, the sections were incubated with secondary antibodies for 1 h at room temperature. Next, 4’,6-diamidino-2-phenylindole (DAPI; Beyotime, China, C1006) was used to stain the nuclei. After washing, the organoid monolayers or ST cells were visualized using confocal laser-scanning microscopy (Zeiss LSM 900, Germany). Apical-out porcine intestinal organoids or small intestinal tissues were stained with primary and secondary antibodies and visualized using confocal laser-scanning microscopy (Zeiss LSM 900, Germany) according to the manufacturer’s protocol ([28]).
Neonatal pigs spontaneously delivered from sows were confirmed to be negative for TGEV by RT-qPCR and enzyme-linked immunosorbent assay. For the cytotoxicity and pharmacokinetic parameters of the PM, three piglets were orally administered PM (100 mg/kg), and the serum was collected by venipuncture at 0, 1, 2, 4, 6, 8, 10, 12, 16, and 24 h after oral administration of PM for cytotoxicity assays and pharmacokinetic parameter determination. For antiviral animal experiments, piglets were randomly separated into four groups: the mock group ([3]), TGEV group ([3]), TGEV-PM-therapy group ([3]), and TGEV-PM-prevention group ([3]). For the TGEV group, neonatal pigs were orally administered 1.245 × 10^8 PFU TGEV Miller for 24 h. In addition, piglets in the TGEV-PM therapy group were orally infected with 1.245 × 10^8 PFU TGEV Miller and then treated with PM (100 mg/kg). For the TGEV-PM-prevention group, three neonatal pigs were orally pretreated with PM (100 mg/kg) for 24 h and subsequently inoculated with 1.245 × 10^8 PFU TGEV Miller for 24 h. The body weights of all piglets were recorded, and anal swabs were collected every 12 h. At 24 hpi, all pigs were euthanized, and intestinal tissues were collected for RT-qPCR, western blot, IFA, and pathological examination. All animals were handled in strict accordance with good animal practice according to the Animal Ethics Procedures and Guidelines of the People’s Republic of China, and the study was approved by The Animal Administration and Ethics Committee of Lanzhou Veterinary Research Institute, Chinese Academy of Agricultural Sciences (Permit No. LVRIAEC-2020-030).

[3] = tested on: APN; test: APN expression in BHK-21 cells (western blot); type: cell-based, mouse; details: for APN level, western blot quantified by Image J, relative to no PM (=1): PM 10 mM
Description: Fig. S6. PM degrades human and mouse-derived APN expression. (A and B) HEK-293T cells (A) and […] (B) were treated with PM (10 mM) for 8 h or 16 h respectively, APN expression was measured by western blot. All western blot results were calculated by Image J. All experiments were […]
PM(10mM) - + - + PM(10mM) - + - + […]

[4] = PM-therapy and PM-prevention groups vs control, 24 hpi, western blot
[5] = oral PM 100 mg/kg every 12 h, TGEV Miller 1.245 × 10^8 PFU oral

## [K+].[K+].[O]=[Mo](=[O])([O-])[O-] [PM, potassium molybdate]
[1]
  TGEV infection: effectively restricted
[2]; 24 hpi
  APN expression and TGEV N protein expression in small intestine (IFA): almost entirely inhibited
[2]; PM 100 mg/kg, preventive or therapeutic treatment, 24 hpi
  TGEV-induced villous atrophy of small intestinal segments (H&E): almost completely reversed TGEV-induced villous atrophy
[2]; PM treatment alone
  effect of PM alone on the small intestine (H&E): did not have any impact on the small intestine
[2]; PM-therapy and PM-prevention groups vs control, 24 hpi, RT-qPCR and western blot
  TGEV burden throughout the small intestine: substantially lower
[2]; [4]
  APN and P62 expression throughout the small intestine: substantially lower
  PIK3C3 expression in the small intestine: significantly higher
[2]; [5]
  body weight loss: TGEV group lost more weight and had higher viral shedding than those receiving PM
  viral shedding (anal swabs, RT-qPCR): TGEV group lost more weight and had higher viral shedding than those receiving PM
[3]; 8 h
  APN level, western blot quantified by Image J, relative to no PM (=1): 0.38
[3]; 16 h
  APN level, western blot quantified by Image J, relative to no PM (=1): 0.20
[3]; PM for 8 and 16 h
  mouse-derived APN expression: also decreased human and mouse-derived APN expression
